Results reported in patent US8293788B2, “2-phenylpropionic acid derivatives and pharmaceutical compositions containing them” (priority 2004, dated 2012).

How the values were obtained:
[1] = system: human PMNs chemotaxis induced by IL-8; test: IL-8 induced PMN chemotaxis assay; assay type: cell-based; conditions: compound at 10^−9M, read-out: PMN migration by IL-8 % of inhibition (10^−9M)
Method: (§1) The compounds of the invention of formula (I) were evaluated in vitro for their ability to inhibit chemotaxis of polymorphonucleate leukocytes (hereinafter referred to as PMNs) and monocytes induced by the fractions of IL-8 and GRO-α and C5a. For this purpose, in order to isolate the PMNs from heparinized human blood, taken from healthy adult volunteers, mononucleates were removed by means of sedimentation on dextran (according to the procedure disclosed by W. I. Ming et al., J. Immunol., 138, 1469, 1987) and red blood cells by a hypotonic solution. The cell vitality was calculated by exclusion with Trypan blue, whilst the ratio of the circulating polymorphonucleates was estimated on the cytocentrifugate after staining with Diff Quick.
In the IL-8 induced chemotaxis assay human recombinant IL-8 (Pepro Tech) was used as stimulating agents in the chemotaxis experiments: the lyophilized protein was dissolved in a volume of HBSS containing 0.2% bovin serum albumin (BSA) so thus to obtain a stock solution having a concentration of 10^−5 M to be diluted in HBSS to a concentration of 10^−9 M, for the chemotaxis assays.
(§2) In the chemotaxis experiments, the PMNs were incubated with the compounds of the invention of formula (I) for 15′ at 37° C. in an atmosphere containing 5% CO2.
(§3) During the chemotaxis assay (according to W. Falket et al., J. Immunol. Methods, 33, 239, 1980) PVP-free filters with a porosity of 5 μm and microchambers suitable for replication were used.
(§4) The compounds of the invention in formula (I) were evaluated at a concentration ranging between 10^−6 and 10^−10 M; for this purpose they were added, at the same concentration, both to the lower pores and the upper pores of the microchamber. Evaluation of the ability of the compounds of the invention of formula (I) to inhibit the chemotaxis of human monocytes was carried out according to the method disclosed by Van Damme J. et al. (Eur. J. Immunol., 19, 2367, 1989).

[2] = Protein binding in rat plasma (ultrafiltration); assay type: in vitro ADME; conditions: 37° C.
Method: Protein Binding was determined as follows: Duplicate rat plasma samples of each compound at 50 μg/mL concentration were incubated at 37° C. for 20 minutes under gentle shaking. Then samples were ultrafiltrated through Centrifree® micropartition devices by centrifugation at 1500 g for 15 minutes. The ultrafiltrate was subjected to HPLC-MS/MS quantitative analysis (Column Luna C18, 150×2 mm ID 5 μm (Phenomenex), mobile phase: eluent A) 0.02M HCOO^−NH4^+ (pH 4.3 with HCOOH); eluent B) CH3OH).

[3] = Pharmacokinetic profile in male mice after intravenous and oral administration; assay type: in vivo; conditions: mouse, plasma; for bioavailability: intravenous and oral administration
Method: The pharmacokinetic profile (t1/2, oral bioavailability, etc) of claimed compounds was evaluated in male mice after intravenous and oral administration. The pharmacokinetic analysis was performed using compounds plasmatic concentrations at different times. The data were evaluated by Kinetica 2000™, Version 3.0 Software [InnaPhase Corporation, World headquarters, 1700 Race Street, Philadelphia, Pa. 19103 USA].

[4] = system: GRO-α induced PMN chemotaxis; test: GRO-α induced PMN chemotaxis assay; assay type: cell-based; conditions: human PMNs; for inhibition at 0.01 µM: compound at 10^−8M, read-out: PMN migration by GROα % of inhibition (10^−8M); for PMN migration by GROα % of inhibition: tested at 10^−6M
Method: as §1
GRO-α induced chemotaxis inhibition was evaluated in an analogous assay.
as §2, §3, §4

[5] = system: C5a induced PMNs chemotaxis; test: C5a induced PMN chemotaxis assay; assay type: cell-based; conditions: human PMNs; for PMN migration by C5a % of inhibition: tested at 10^−6M; for inhibition at 0.01 µM: compound at 10^−8M, read-out: PMN migration by C5a % of inhibition (10^−8M)
Method: as §1
In the C5a induced chemotaxis essay the fractions hrC5a and hrC5a-desArg (Sigma) were used as stimulating agents in chemotaxis experiments, obtaining practically identical results, Lyophilized C5a was dissolved in a volume of HBSS containing 0.2% BSA so as to obtain a stock solution having a concentration of 10^−5 M, to be diluted in HBSS to a concentration of 10^−9 M, for the chemotaxis assays.
as §2
The chemotactic activity of the C5a was evaluated on human circulating polymorphonucleates (PMNs) resuspended in HBSS at a concentration of 1.5×10^6 PMNs per ml.
as §3, §4

fraction unbound at 20 min, 50 μg/mL [2]	half-life [3] [h]	bioavailability [3] [%]	SMILES	inhibition at 0.001 µM [1] [%]	inhibition at 0.01 µM [4] [%]	PMN migration by C5a % of inhibition [5]	PMN migration by GROα % of inhibition [4]	inhibition at 0.01 µM [5] [%]
0.01	24.7	~100	C[C@@H](C(=O)[N-]S(C)(=O)=O)c1ccc(OS(=O)(=O)C(F)(F)F)cc1.[Na+]	58 ± 9	61 ± 6	Inactive^#	–	–
0.062	2.3	95	C[C@@H](C(N)=O)c1ccc(OS(=O)(=O)C(F)(F)F)cc1	64 ± 2	61 ± 3	Inactive^#	–	–
0.296	3.4	80	C[C@@H](C(=O)NCCN1CCCC1)c1ccc(OS(=O)(=O)C(F)(F)F)cc1.Cl	52 ± 12	–	–	Inactive^#	65 ± 18
0.359	2.4	90	C[C@@H](C(=O)NCCCN1CCCC1)c1ccc(OS(=O)(=O)C(F)(F)F)cc1.Cl	51 ± 13	–	–	Inactive^#	67 ± 10
0.0002	0.4	80	CC(C)Cc1ccc([C@@H](C)C(=O)NS(C)(=O)=O)cc1 [reference compound]	50 ± 12	10 ± 18	Inactive^#	–	–
0.016	0.4	35	CC(C)Cc1ccc([C@@H](C)C(N)=O)cc1 [reference compound]	57 ± 12	10 ± 7	Inactive^#	–	–
0.15	1.7	30	CC(C)Cc1ccc([C@@H](C)C(=O)NCCCN2CCCCC2)cc1 [reference compound]	44 ± 5	39 ± 10	–	–	55 ± 6
